From patent US4746349A, “Method and compositions for suppressing the nitrification of ammonium in plant growth medium” (American Cyanamid Company, priority 1986, dated 1988)
Values joined by “and” are separate entries in the source; they are usually repeats but may differ in a detail not shown here. Equal values may be shown once.

How the values were obtained:
Nitrosomonas spp. = assay: Nitrification of ammonium in soil incubated at 25° C. (ammonium recovery, nitrate accumulation); settings: soil 25° C.; for Concentration of nitrate nitrogen / Recovery of Ammonium Nitrogen: 200 ppm N
Procedure, shortened: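 Ammonium recovery and nitrate accumulation read out after KCl extraction (2M, 1 h shaking) and steam distillation of ammonium, nitrite and nitrate. Soil was amended with 200 ppm N as ammonium sulfate and 0.10–0.50 ppm inhibitor, held at 50% water saturation at 25 °C, sampled 0–20 weeks in duplicate.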

Nitrobacter spp. = assay: Nitrite nitrogen in ammonium amended soil incubated at 25° C.; settings: soil 25° C., 200 ppm N
Method: Determination of nitrite nitrogen and nitrate nitrogen in soil prepared in Example 1 above, which is amended with 200 ppm of nitrogen as aqueous ammonium sulfate, […], is determined using the nitrite and nitrate analysis of the American Organization of Analytical Chemists (AOAC pp. 653-655).

[1] = tested on: corn (Dekalb T2000, B73×LH 38); assay: Field evaluation: corn ear leaf tissue nitrogen, silt loam plots; assay type: in vivo; settings: for Corn Leaf Tissue Analysis (total N): ear leaf at silking
Description: (§1) Field Evaluation: Field evaluations are based on the N content of corn leaf tissue and grain yield utilizing two soil types. Replicate (4X) field plots are established at two different locations, one having (I) silt loam soil and one (II) with sandy loam soil. These soils had been previously cropped to non-fertilized corn to reduce the level of residual N. Maduramicin monoammonium salt is applied (0.25, 0.125, 0.07 ppm) with NH3 (84 or 168 kg N/ha) through a "downstream" by an injection system into silt loam plots. Nitrapyrin (0.25 ppm=0.56 kg a.i./ha), nitrogen checks, benzyl alcohol (1.16L/ha) (BA) and a O nitrogen check are included for comparison. Individual replicate plot sizes are 3.04M×22.8M (4, 76-cm corn rows×22.8M long) Anhydrous ammonia are injected on 76-cm centers.
(§2) Urea, treated or non-treated with Maduramicin monoammonium salt is broadcast on the surface of sandy loam plots. Plots are then planted with corn the day following treatment. Dekalb T2000 is planted 10 May on silt loam plots and Pioneer 3352 is planted 11 May in sandy loam plots.
(§3) Corn ear leaf tissues collected at silking on silt loam plots or 60 days post silking (on silt loam and sandy loam plots) are collected from each plot and assayed for total N (AOAC procedures). Grain yields are determined by harvesting the two center rows×15.2 m of each plot.

[2] = tested on: corn (Dekalb T2000, B73×LH 38); assay: Field evaluation: yield of corn, silt loam location; assay type: in vivo
Description: as §1, §2, §3

corn (Pioneer 3352) = assay: Field evaluation: yield of corn, sandy loam plots; assay type: in vivo; settings: sandy loam
Description: as §1
Plots are then planted with corn the day following treatment. Dekalb T2000 is planted 10 May on silt loam plots and Pioneer 3352 is planted 11 May in sandy loam plots.
as §3

Nitrosomonos = assay: Nitrification of ammonium amended field soil incubated at 38° C. (ammonium recovery, nitrate); settings: 0.50 ppm, soil 38° C., 200 ppm N
Method: (§4) Determination of Nitrification Inhibition of Soil amended with 200 ppm of nitrogen as ammonium sulfate and 0.5 ppm of Nitrapyrin or 0.5 ppm of Maduramicin, monoammonium salt.
(§5) Soil samples prepared as described in Example 1 above are incubated at 38° C. for 20 weeks. Samples are taken at intervals during the 20 week period, extracted with 2M KCl (10:1 v/w), and assayed for ammonium nitrite and nitrate by standard steam distillation methods.

Nitrabacter = assay: Nitrite in ammonium amended field soil incubated at 38° C.; settings: 0.50 ppm, soil 38° C., 200 ppm N
Method: as §4, §5

Urease = Urease activity of urea amended soil, 38° C., 24 hrs; assay type: biochemical
Method: Urease activity: Five grams (5 g) oven-dry soil is treated with 5 ml of aqueous urea solution (1000 ug/g soil), with or without the test compound, and incubated in 65 ml screw-capped glass bottles at 38° C. for 24 hrs. Three replicates of each treatment are established. Phenylphosphorodiamide (PPD) is used as a urease inhibitor for comparison with Maduramicin monoammonium salt. Urea remaining is determined after extracting the soil for 60 minutes (with shaking) with 50 ml of 2M KCl containing 0.5 ug/ml of phenylmercuric acetate and filtering the soil suspension. Urea in the extract is determined colorimetrically (Douglas & Bremner, 1970). The percentage inhibition is calculated from (A-B)/(C-B) X 100-% inhibition; where A=the amount of urea found after incubation with the compound, B=the amount of urea found in the non-treated soil, and C=the amount of urea added.

Structure (SMILES): OCc1ccccc1 [Benzyl Alcohol]
- Effect on nitrification, in words (Nitrosomonas spp.; 5%): markedly inhibited nitrification throughout the incubation period
- Concentration of nitrate nitrogen (Nitrosomonas spp.; 5%, week 0): 19 PPM
- Recovery of Ammonium Nitrogen (Nitrosomonas spp.; 5%, week 0): 194 PPM
- Concentration of nitrate nitrogen (Nitrosomonas spp.; 5%, week 1): 21 PPM
- Recovery of Ammonium Nitrogen (Nitrosomonas spp.; 5%, week 1): 163 PPM
- Concentration of nitrate nitrogen (Nitrosomonas spp.; 5%, week 2): 16 PPM
- Recovery of Ammonium Nitrogen (Nitrosomonas spp.; 5%, week 2): 163 PPM
- Concentration of nitrate nitrogen (Nitrosomonas spp.; 5%, week 4): 20 PPM
- Recovery of Ammonium Nitrogen (Nitrosomonas spp.; 5%, week 4): 168 PPM
- Concentration of nitrate nitrogen (Nitrosomonas spp.; 5%, week 7): 15 PPM
- Recovery of Ammonium Nitrogen (Nitrosomonas spp.; 5%, week 7): 164 PPM
- Concentration of nitrate nitrogen (Nitrosomonas spp.; 5%, week 9): 99 PPM
- Recovery of Ammonium Nitrogen (Nitrosomonas spp.; 5%, week 9): 41 PPM
- Concentration of nitrate nitrogen (Nitrosomonas spp.; 5%, week 12): 19 PPM
- Recovery of Ammonium Nitrogen (Nitrosomonas spp.; 5%, week 12): 163 PPM
- Concentration of nitrate nitrogen (Nitrosomonas spp.; 5%, week 16): 27 PPM
- Recovery of Ammonium Nitrogen (Nitrosomonas spp.; 5%, week 16): 169 PPM
- Concentration of nitrate nitrogen (Nitrosomonas spp.; 5%, week 20): 20 PPM
- Recovery of Ammonium Nitrogen (Nitrosomonas spp.; 5%, week 20): 139 PPM
- Concentration of nitrite nitrogen (Nitrobacter spp.; 5%, week 0): 6 ppm
- Concentration of nitrite nitrogen (Nitrobacter spp.; 5%, week 1): 5 ppm
- Concentration of nitrite nitrogen (Nitrobacter spp.; 5%, week 2): 5 ppm
- Concentration of nitrite nitrogen (Nitrobacter spp.; 5%, week 4): 6 ppm
- Concentration of nitrite nitrogen (Nitrobacter spp.; 5%, week 7): 3 ppm
- Concentration of nitrite nitrogen (Nitrobacter spp.; 5%, week 9): -1 ppm
- Concentration of nitrite nitrogen (Nitrobacter spp.; 5%, week 12): 5 ppm
- Concentration of nitrite nitrogen (Nitrobacter spp.; 5%, week 16): 1 ppm
- Concentration of nitrite nitrogen (Nitrobacter spp.; 5%, week 20): 27 ppm
- Corn Leaf Tissue Analysis (total N) ([1]; 1.1 l/ha, NH3 168 kg N/ha): 271 10^2 ug/g
- AVERAGE YIELD 4-REPLICATES ([2]; N 168 kg/ha, chemical 1.2 l/ha): 140.9 HECTOLITERS/HECTARE
- AVERAGE YIELD 4-REPLICATES (corn (Pioneer 3352); N 168 kg/ha as NH3, chemical 1.2 l/ha): 165.3 HECTOLITERS/HECTARE

Structure (SMILES): Clc1cccc(C(Cl)(Cl)Cl)n1 [Nitrapyrin]
- Nitrification (percent nitrified) (Nitrosomonas spp.; 0.50 ppm, by the 16th week): 65%
- Nitrification (percent nitrified) (Nitrosomonas spp.; 0.50 ppm, by the 20th week): 87%
- Time through which nitrification is delayed or inhibited (Nitrosomonas spp.; 0.5 ppm): 12 weeks
- Concentration of nitrate nitrogen (Nitrosomonas spp.; 0.50 ppm, week 0): 18 PPM
- Recovery of Ammonium Nitrogen (Nitrosomonas spp.; 0.50 ppm, week 0): 193 PPM
- Concentration of nitrate nitrogen (Nitrosomonas spp.; 0.50 ppm, week 1): 11 PPM
- Recovery of Ammonium Nitrogen (Nitrosomonas spp.; 0.50 ppm, week 1): 155 PPM
- Concentration of nitrate nitrogen (Nitrosomonas spp.; 0.50 ppm, week 2): 23 PPM
- Recovery of Ammonium Nitrogen (Nitrosomonas spp.; 0.50 ppm, week 2): 177 PPM
- Concentration of nitrate nitrogen (Nitrosomonas spp.; 0.50 ppm, week 4): 21 PPM
- Recovery of Ammonium Nitrogen (Nitrosomonas spp.; 0.50 ppm, week 4): 185 PPM
- Concentration of nitrate nitrogen (Nitrosomonas spp.; 0.50 ppm, week 7): 25 PPM
- Recovery of Ammonium Nitrogen (Nitrosomonas spp.; 0.50 ppm, week 7): 188 PPM
- Concentration of nitrate nitrogen (Nitrosomonas spp.; 0.50 ppm, week 9): 39 PPM
- Recovery of Ammonium Nitrogen (Nitrosomonas spp.; 0.50 ppm, week 9): 174 PPM
- Concentration of nitrate nitrogen (Nitrosomonas spp.; 0.50 ppm, week 12): 49 PPM
- Recovery of Ammonium Nitrogen (Nitrosomonas spp.; 0.50 ppm, week 12): 184 PPM
- Concentration of nitrate nitrogen (Nitrosomonas spp.; 0.50 ppm, week 16): 148 PPM
- Recovery of Ammonium Nitrogen (Nitrosomonas spp.; 0.50 ppm, week 16): 70 PPM
- Concentration of nitrate nitrogen (Nitrosomonas spp.; 0.50 ppm, week 20): 163 PPM
- Recovery of Ammonium Nitrogen (Nitrosomonas spp.; 0.50 ppm, week 20): 25 PPM
- Concentration of nitrite nitrogen (Nitrobacter spp.; 0.50 ppm, week 0): 6 ppm
- Concentration of nitrite nitrogen (Nitrobacter spp.; 0.50 ppm, week 1): 6 ppm
- Concentration of nitrite nitrogen (Nitrobacter spp.; 0.50 ppm, week 2): 3 ppm
- Concentration of nitrite nitrogen (Nitrobacter spp.; 0.50 ppm, week 4): 5 ppm
- Concentration of nitrite nitrogen (Nitrobacter spp.; 0.50 ppm, week 7): -1 ppm
- Concentration of nitrite nitrogen (Nitrobacter spp.; 0.50 ppm, week 9): 8 ppm
- Concentration of nitrite nitrogen (Nitrobacter spp.; 0.50 ppm, week 12): -10 ppm
- Concentration of nitrite nitrogen (Nitrobacter spp.; 0.50 ppm, week 16): 15 ppm
- Concentration of nitrite nitrogen (Nitrobacter spp.; 0.50 ppm, week 20): 34 ppm
- Ammonium Recovery, reported as nitrogen (Nitrosomonos; week 0): 194 ppm
- Nitrate, reported as nitrogen (Nitrosomonos; week 0): 20 ppm
- Ammonium Recovery, reported as nitrogen (Nitrosomonos; week 1): 188 ppm
- Nitrate, reported as nitrogen (Nitrosomonos; week 1): 18 ppm
- Ammonium Recovery, reported as nitrogen (Nitrosomonos; week 2): 195 ppm
- Nitrate, reported as nitrogen (Nitrosomonos; week 2): 15 ppm
- Ammonium Recovery, reported as nitrogen (Nitrosomonos; week 4): 200 ppm
- Nitrate, reported as nitrogen (Nitrosomonos; week 4): 22 ppm
- Ammonium Recovery, reported as nitrogen (Nitrosomonos; week 7): 179 ppm
- Nitrate, reported as nitrogen (Nitrosomonos; week 7): 48 ppm
- Ammonium Recovery, reported as nitrogen (Nitrosomonos; week 9): 141 ppm
- Nitrate, reported as nitrogen (Nitrosomonos; week 9): 79 ppm
- Ammonium Recovery, reported as nitrogen (Nitrosomonos; week 12): 125 ppm
- Nitrate, reported as nitrogen (Nitrosomonos; week 12): 114 ppm
- Ammonium Recovery, reported as nitrogen (Nitrosomonos; week 16): 127 ppm
- Nitrate, reported as nitrogen (Nitrosomonos; week 16): 126 ppm
- Ammonium Recovery, reported as nitrogen (Nitrosomonos; week 20): 91 ppm
- Nitrate, reported as nitrogen (Nitrosomonos; week 20): 128 ppm
- Nitrite, reported as nitrogen (Nitrabacter; week 0): 6 ppm
- Nitrite, reported as nitrogen (Nitrabacter; week 1): 3 ppm
- Nitrite, reported as nitrogen (Nitrabacter; week 2): 12 ppm
- Nitrite, reported as nitrogen (Nitrabacter; week 4): 9 ppm
- Nitrite, reported as nitrogen (Nitrabacter; week 7): -27 ppm
- Nitrite, reported as nitrogen (Nitrabacter; week 9): 14 ppm
- Nitrite, reported as nitrogen (Nitrabacter; week 12): 14 ppm
- Nitrite, reported as nitrogen (Nitrabacter; week 16): 7 ppm
- Nitrite, reported as nitrogen (Nitrabacter; week 20): 27 ppm
- Corn Leaf Tissue Analysis (total N) ([1]; inhibitor 0.56 kg/ha, NH3 84 kg N/ha): 232 10^2 ug/g
- Corn Leaf Tissue Analysis (total N) ([1]; inhibitor 0.56 kg/ha, NH3 168 kg N/ha): 291 10^2 ug/g
- More nitrogen in leaf tissue than control plots with similar nitrogen ([1]; silt loam plots): 15-25%
- AVERAGE YIELD 4-REPLICATES ([2]; N 84 kg/ha, chemical 0.56 kg/ha): 133.4 HECTOLITERS/HECTARE
- AVERAGE YIELD 4-REPLICATES ([2]; N 168 kg/ha, chemical 0.56 kg/ha): 148.8 HECTOLITERS/HECTARE
- AVERAGE YIELD 4-REPLICATES (corn (Pioneer 3352); N 84 kg/ha as NH3, chemical 0.56 kg/ha): 160.1 HECTOLITERS/HECTARE
- AVERAGE YIELD 4-REPLICATES (corn (Pioneer 3352); N 168 kg/ha as NH3, chemical 0.56 kg/ha): 167.0 HECTOLITERS/HECTARE

Structure (SMILES): NP(N)(=O)Oc1ccccc1 [PPD, Phenylphosphorodiamide]
- % INHIBITION (urease) (Urease; (A-B)/(C-B) X 100, urea 1000 ug/g soil): 63%
- AVERAGE amount of urea remaining (Urease; average of 3 replicates, urea 1000 ug/g soil): 769 µg/g
- AMOUNT REMAINING (urea) (Urease; single replicates, urea 1000 ug/g soil): 755 µg/g and 767 µg/g and 770 µg/g
